Results reported in US6313111A, “Substituted 6H-1,3,4-thiadiazine-2-amines, the use thereof as anaesthetising, cardiovascular and hypometabolic agents, and pharmaceutical composition containing them” (priority 1998, dated 2001).
Values joined by “and” are separate entries in the source; they are usually repeats but may differ in a detail not shown here. Equal values may be shown once. Where a name gives a salt, the structure may show the parent alone.

Assay: rate of oxygen consumption of mice in closed unit with optic-acoustic gas analyser MN 5130
Type: in vivo, mice of the BALB line
Conditions: relative to starting content
Procedure: In all cases tests were carried out on mice of the BALB line of 3-4 month age. […] In the case of water-soluble compounds, aqueous solutions of the test compounds were injected intraperitoneally (i.p.), while water-insoluble compounds were introduced orally (p.o.).
Rectal temperature changes (absolute magnitues in ° C.) were measured using a medicinal electrothermometer TREM-1 (Table 1). The rate of oxygen consumption was monitored by measuring concentration of oxygen in a closed testing unit with optic-acoustic gas analyser MN 5130. The data on oxygen consumption are given in percents relative to the starting content of oxygen taken as 100%. (Table 2).

SMILES: c1ccc(C2=NN=C(N3CCOCC3)SC2)cc1 [Compound 1, 2-Morpholino-5-phenyl-6H-1,3,4-thiadiazine, hydrobromide]
- consumption of oxygen (O2) (10.0 mg/kg i.p., 0 min): 100 ± 6.9%
- consumption of oxygen (O2) (10.0 mg/kg i.p., 10 min): 94.0 ± 5.5%
- consumption of oxygen (O2) (10.0 mg/kg i.p., 20 min): 87.3 ± 9.9%
- consumption of oxygen (O2) (10.0 mg/kg i.p., 30 min): 78.2%
- consumption of oxygen (O2) (10.0 mg/kg i.p., 60 min): 83.3 ± 18.1%
- consumption of oxygen (O2) (10.0 mg/kg i.p., 90 min): 75.9 ± 19.3%
- consumption of oxygen (O2) (10.0 mg/kg i.p., 120 min): 95.6 ± 10.8%
- consumption of oxygen (O2) (10.0 mg/kg i.p., 180 min): 80.6 ± 9.9%
- consumption of oxygen (O2) (10.0 mg/kg i.p., 240 min): 92.6 ± 3.9%
- consumption of oxygen (O2) (10.0 mg/kg i.p., 300 min): 109.7 ± 8.8%
- consumption of oxygen (O2) (35.0 mg/kg i.p., 0 min): 100 ± 7.4%
- consumption of oxygen (O2) (35.0 mg/kg i.p., 10 min): 86.3 ± 13.1%
- consumption of oxygen (O2) (35.0 mg/kg i.p., 20 min): 73.6 ± 2.6%
- consumption of oxygen (O2) (35.0 mg/kg i.p., 30 min): 68.4%
- consumption of oxygen (O2) (35.0 mg/kg i.p., 60 min): 70.4 ± 7.1%
- consumption of oxygen (O2) (35.0 mg/kg i.p., 90 min): 72.1 ± 10.4%
- consumption of oxygen (O2) (35.0 mg/kg i.p., 120 min): 68.4 ± 11.2%
- consumption of oxygen (O2) (35.0 mg/kg i.p., 180 min): 78.4 ± 9.3%
- consumption of oxygen (O2) (35.0 mg/kg i.p., 240 min): 97.4 ± 5.6%
- consumption of oxygen (O2) (35.0 mg/kg i.p., 300 min): 85.1 ± 3.8%
- consumption of oxygen (O2) (140.0 mg/kg i.p., 0 min): 100 ± 21.7%
- consumption of oxygen (O2) (140.0 mg/kg i.p., 10 min): 26.3 ± 6.8%
- consumption of oxygen (O2) (140.0 mg/kg i.p., 20 min): 46.8 ± 4.7%
- consumption of oxygen (O2) (140.0 mg/kg i.p., 30 min): 32.2%
- consumption of oxygen (O2) (140.0 mg/kg i.p., 60 min): 49.3 ± 9.8%
- consumption of oxygen (O2) (140.0 mg/kg i.p., 90 min): 43.6 ± 18.6%
- consumption of oxygen (O2) (140.0 mg/kg i.p., 120 min): 49.3 ± 15.4%
- consumption of oxygen (O2) (140.0 mg/kg i.p., 180 min): 78.9 ± 10.6%
- consumption of oxygen (O2) (140.0 mg/kg i.p., 240 min): 88.8 ± 9.8%
- consumption of oxygen (O2) (140.0 mg/kg i.p., 300 min): 105.3 ± 20.5%
- consumption of oxygen (O2) (190 mg/kg (1/2 LD16) i.p., 5 min): 43%
- consumption of oxygen (O2) (190 mg/kg (1/2 LD16) i.p., 15 min): 71.7%
- consumption of oxygen (O2) (190.0 mg/kg i.p., 0 min, hydrobromide): 100% and 100 ± 27.8%
- consumption of oxygen (O2) (190.0 mg/kg i.p., 10 min): 26.3 ± 9.8%
- consumption of oxygen (O2) (190.0 mg/kg i.p., 20 min): 71.7 ± 4.1%
- consumption of oxygen (O2) (190.0 mg/kg i.p., 30 min): 49.2%
- consumption of oxygen (O2) (190.0 mg/kg i.p., 60 min, hydrobromide): 29.5% and 29.5 ± 15.0%
- consumption of oxygen (O2) (190.0 mg/kg i.p., 90 min, hydrobromide): 47.5% and 47.5 ± 6.8%
- consumption of oxygen (O2) (190.0 mg/kg i.p., 120 min, hydrobromide): 36.9% and 36.9 ± 22.8%
- consumption of oxygen (O2) (190.0 mg/kg i.p., 180 min, hydrobromide): 55.3% and 55.3 ± 9.1%
- consumption of oxygen (O2) (190.0 mg/kg i.p., 240 min, hydrobromide): 99.6% and 99.6 ± 11.2%
- consumption of oxygen (O2) (190.0 mg/kg i.p., 300 min, hydrobromide): 151.6% and 151.6 ± 20.7%
- consumption of oxygen (O2) (279.0 mg/kg i.p., 0 min): 100 ± 5.2%
- consumption of oxygen (O2) (279.0 mg/kg i.p., 10 min): 32.6 ± 2.2%
- consumption of oxygen (O2) (279.0 mg/kg i.p., 20 min): 26.7 ± 2.2%
- consumption of oxygen (O2) (279.0 mg/kg i.p., 30 min): 20.7%
- consumption of oxygen (O2) (279.0 mg/kg i.p., 60 min): 9.3 ± 5.1%
- consumption of oxygen (O2) (279.0 mg/kg i.p., 90 min): 10.9 ± 5.5%
- consumption of oxygen (O2) (279.0 mg/kg i.p., 120 min): 9.3 ± 5.9%
- consumption of oxygen (O2) (279.0 mg/kg i.p., 180 min): 9.3 ± 4.0%
- consumption of oxygen (O2) (279.0 mg/kg i.p., 240 min): 13.0 ± 8.7%
- consumption of oxygen (O2) (279.0 mg/kg i.p., 300 min): 10.9 ± 1.0%
- consumption of oxygen (O2) (365.0 mg/kg i.p., 0 min): 100 ± 4.7%
- consumption of oxygen (O2) (365.0 mg/kg i.p., 10 min): 15.2 ± 3.1%
- consumption of oxygen (O2) (365.0 mg/kg i.p., 20 min): 15.8 ± 5.0%
- consumption of oxygen (O2) (365.0 mg/kg i.p., 30 min): 13.6%
- consumption of oxygen (O2) (365.0 mg/kg i.p., 60 min): 13.3 ± 3.7%
- consumption of oxygen (O2) (365.0 mg/kg i.p., 90 min): 13.1 ± 2.0%
- consumption of oxygen (O2) (365.0 mg/kg i.p., 120 min): 17.0 ± 3.4%
- consumption of oxygen (O2) (365.0 mg/kg i.p., 180 min): 11.2 ± 3.4%
- consumption of oxygen (O2) (365.0 mg/kg i.p., 240 min): 8.2 ± 2.0%
- consumption of oxygen (O2) (dose 36.5 mg/kg (1.06 mM/kg) i.p., 300 min): 18.4 ± 2.0%
